Source: patent US20090012152A1, “Use of Tetramic Acid Derivatives for Controlling Insects from the Genus of the Plane Lice (Sternorrhyncha)” (Bayer CropScience Aktiengesellschaft, priority 2005, published 2009)

Key:
Assay type in all cases: in vivo
[1] = system: Saissetia oleae; test: Example 13: orange trees treated against Saissetia oleae; settings: nymphs on leaves, g a.i./ha/m crown height: buprofezin 500, I-4 72, I-8 30
Description: In three replications, in each case two about 8-year-old orange trees are treated against Saissetia oleae. Here, the active compounds Example (I-4) (240 SC) and Example (I-8) (250 SC) in a tank mix with 0.2% a.i. of rapeseed oil methyl ester (500 EW) at the stated application rate are tested against the commercial standard buprofezin in a tank mix with 0.4% a.i. of Oliocin (800 EW) at the stated application rate. The application is carried out using a motor-operated knapsack sprayer. The application rate is 3000 l of water/ha. Two treatments are carried out, at an interval of 29 days.
Evaluation is carried out 24 and 44 days after the last treatment by rating the kill of the nymphs on the leaves.

[2] = system: Saissetia oleae; test: Example 14: orange trees (Navelina) treated against Saissetia oleae; settings: 120 d after treatment, kill on branches, % a.i.: Dursban 0.096, I-4 0.012, I-9 0.0054, pyriproxyfen 0.005
Description: In three replications, orange trees of the cultivar “Navelina” are treated against Saissetia oleae. Here, the active compounds Example (I-4) (240 SC) and Example (I-9) (240 SC) in a tank mix with 0.1% of rapeseed oil methyl ester (500 EW) at the stated application rate are tested against the commercial standards Dursban (480 EC) and pyriproxyfen (100 EC) at the stated application rate. The application is carried out using a motor-operated knapsack sprayer. The application rate is 3200 l of water/ha.
Evaluation is carried out 120 days after the treatment by rating the kill of the animals on the branches.

[3] = system: Quadraspidiotus perniciosus; test: Example 17: apple trees treated against San Jose scale louse; settings: 43 days after last of two treatments, on shoots, g a.i./ha/m crown height: Dursban 223, I-4 72
Description: In three replications, four about 18-year-old apple trees of the cultivar “Red Chief” are treated against the San Jose scale louse Quadraspidiotus perniciosus. Two applications are carried out at an interval of 15 days using a motor-operated barrow-mounted sprayer. Here, the active compound Example (I-4) (240 SC) is applied in a tank mix with 0.2% a.i. of rapeseed oil methyl ester (500 EW) at the stated application rate and the commercial standard Dursban (446 EC) is applied at the stated application rate. The application rate is 1500 l of water/ha.
Evaluation is carried out 43 days after the last treatment by rating the kill on the shoots.

[4] = system: Dysmicoccus brevipes; test: Example 30: pineapple plants treated against Dysmicoccus brevipes; settings: nymphs on pineapple plants, g a.i./ha: Confidor OD 140, I-4 75
Description: In five replications, pineapple plants of the cultivar “MD2” of a height of about 35 cm are treated against Dysmicoccus brevipes. The application is carried out using a motor-operated knapsack sprayer. Here, the active compound Example (I-4) (150 OD) is tested against the commercial standard Confidor OD (240 OD), at the stated application rates. The application rate is 4000 l of water/ha. Both active compounds are sprayed as a tank mix with 500 g of a.i./ha of adjuvant NP-7 and 4 l of a.i./ha of mineral oil.
Evaluation is carried out 9, 23 and 37 days after the treatment by rating the kill of the nymphs on the plants.

[5] = system: Bemisia argentifolii; test: Example 36: aubergine plants (Ryoma) treated against Bemisia argentifolii; settings: nymphs on leaves, % a.i.: pymetrozine 0.0125, I-4 0.072, I-8 0.06
Description: In three replications, in each case four aubergine plants of the cultivar “Ryoma” are treated against Bemisia argentifolii. The application is carried out using a motor-operated knapsack sprayer. Here, the active compounds Example (I-4) and Example (I-8), in a tank mix with 0.2% a.i. of rapeseed oil methyl ester (500 EW), and the commercial standard pymetrozine (25 WP) are tested at the stated application rates. The application rate is 3200 l of water/ha.
Evaluation is carried out 13, 20 and 27 days after the treatment by rating the kill of the nymphs on the leaves.

[6] = system: Aleurothrixus floccosus; test: Example 39: orange trees treated against Aleurothrixus floccosus; settings: on branches, % a.i.: Juvinal 0.005, I-4 0.0072
Description: In three replications, about 55-year-old orange trees of the cultivar “Amargo” are treated against Aleurothrixus floccosus. The application is carried out using a motor-operated knapsack sprayer. Here, the active compound Example (I-4) (240 SC), in a tank mix with 0.1% a.i. of rapeseed oil methyl ester (500 EW), is tested at the stated application rate against the standard Juvinal (100 EC) at the stated application rates, applied once. The application rate is 2630 l of water/ha.
Evaluation is carried out 36, 51, 62 and 76 days after the treatment by rating the kill on the branches.

[7] = system: Aulacorthum solani; test: Example 46: head lettuce treated against Aulacorthum solani; settings: nymphs on plants, g a.i./ha: endosulfan 1120, I-4 48
Description: In four replications, plots of a size of about 33 m^2 with head lettuce of the cultivar “PIC 714” are treated against Aulacorthum solani, Macrosiphum euphorbiae and Myzus persicae. The application is carried out using a tractor sprayer. Here, the active compound Example (I-4) (240 SC), in a tank mix with 0.2% a.i. of rapeseed oil methyl ester (500 EW), is tested against the commercial standard endosulfan (360 EC), at the stated application rates. The application rate is 187 l of water/ha. Two treatments are carried out, at an interval of 22 days.
Evaluation is carried out 8, 22, 30 and 40 days after the first treatment by rating the kill of the nymphs on the plants.

[8] = system: Myzus persicae; test: Example 53: plum trees treated against Myzus persicae; settings: population on shoots, g a.i./ha/m crown height: Actara 33.5, I-4 48
Description: In four replications, plum trees of the cultivar “Angeleno” of a height of about 2.8 m are treated against Myzus persicae. The application is carried out using a high-pressure sprayer. Here, the active compound Example (I-4) (100 OD), in the stated amount, is tested against the commercial standard Actara (25 WG), at the stated application rate. The application rate is 500 l of water/ha/crown height in m.
Evaluation is carried out 6, 9, 12, 20 days after the treatment by rating the kill of the population on the shoots.

## CCOC(=O)OC1=C(c2cc(C)ccc2C)C(=O)NC12CCC(OC)CC2 (centres unmarked) [Example (I-4)]
[1]; 24 d after last of two treatments
  Kill (%) 24 d: 53.5%
[1]; 44 d after last of two treatments
  Kill (%) 44 d: 56.1%
[2]
  Effect (%) 120 d: 98%
[3]
  Kill (%): 90.4%
[4]; 9 days after treatment
  Kill (%) 9 days: 80.9%
[4]; 23 days after treatment
  Kill (%) 23 days: 84.0%
[4]; 37 days after treatment
  Kill (%) 37 days: 91.3%
[5]; 13 d after treatment
  Kill (%) 13 d: 99.6%
[5]; 20 d after treatment
  Kill (%) 20 d: 100%
[5]; 27 d after treatment
  Kill (%) 27 d: 97%
[6]; 36 d after treatment
  Kill (%) 36 d: 81.1%
[6]; 51 d after treatment
  Kill (%) 51 d: 81.5%
[6]; 62 d after treatment
  Kill (%) 62 d: 92.1%
[6]; 76 d after treatment
  Kill (%) 76 d: 92.9%
[7]; 8 d after first of two treatments
  Kill (%) 8 d: 100%
[7]; 22 d after first of two treatments
  Kill (%) 22 d: 99%
[7]; 30 d after first of two treatments
  Kill (%) 30 d: 79%
[7]; 40 d after first of two treatments
  Kill (%) 40 d: 87%
[8]; 6 d after treatment
  Kill (%) 6 d: 96.4%
[8]; 9 d after treatment
  Kill (%) 9 d: 99.7%
[8]; 12 d after treatment
  Kill (%) 12 d: 99.8%
[8]; 20 d after treatment
  Kill (%) 20 d: 99.9%
[8]; 27 d after treatment
  Kill (%) 27 d: 99.9%
